Measurements published in patent publication US7034056B2, “Aryl and biaryl compounds having MCH modulatory activity” (Pharmacopeia Drug Discovery, inc., priority 2001, dated 2006).

biological target: T1, hMCHR (MCH receptor) (Homo sapiens, UniProt Q99705); assay: MCH Assay PCOP Protocol ([125I]-MCH SPA binding to hMCHR-CHO membranes); conditions: [125I]-MCH binding to hMCHR-CHO membranes; class symbols for ranges of Ki; read-out: Activity (Ki range);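 also: A 0.4–50 nM B 51–500 nM C 501–2500 nM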
T1 construct: (or internally produced); host or cells: CHO (Chinese hamster ovary) cells, membrane preparation
In short: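 SPA binding with 10 μg hMCHR-CHO membranes and WGA-SPA beads in 25 mM HEPES pH 7.4, 10 mM NaCl, 10 mM MgCl2, 5 mM MnCl2, 0.1% BSA.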

T1 sequence (Q99705 whole entry): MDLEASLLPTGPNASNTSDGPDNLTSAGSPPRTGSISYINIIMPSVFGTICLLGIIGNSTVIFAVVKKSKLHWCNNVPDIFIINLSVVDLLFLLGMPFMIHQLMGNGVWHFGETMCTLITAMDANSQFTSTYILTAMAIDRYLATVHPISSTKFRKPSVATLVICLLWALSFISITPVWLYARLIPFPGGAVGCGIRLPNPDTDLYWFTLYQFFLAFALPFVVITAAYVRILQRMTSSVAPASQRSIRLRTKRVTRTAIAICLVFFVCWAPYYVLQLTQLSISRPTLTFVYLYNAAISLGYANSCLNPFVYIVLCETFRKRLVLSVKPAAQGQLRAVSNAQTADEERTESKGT

Row | Ki [nM] | Structure (SMILES)
1 | 501 to 2500 | CN(C)CCCNCCC(CNC(=O)Nc1cc(C(F)(F)F)cc(C(F)(F)F)c1)c1ccc(Cl)cc1 (stereo not shown) [Example 337]
2 | 501 to 2500 | Cc1cccc(C(CCN2CCCC2)CNC(=O)Nc2cc(C(F)(F)F)cc(C(F)(F)F)c2)c1 (stereo not shown) [Example 338]
3 | 501 to 2500 | O=S(=O)(NCC(CCNCCc1c[nH]c2ccccc12)c1cccc(F)c1)c1ccc(Cl)c(Cl)c1 (stereo not shown) [Example 339]
4 | 501 to 2500 | O=S(=O)(NCC(CCNCCc1c[nH]c2ccccc12)c1cccc(Cl)c1)c1ccc(Cl)c(Cl)c1 (stereo not shown) [Example 340]
5 | 501 to 2500 | O=C(NCC(CCN1CCCC1)c1cccc(F)c1)Nc1cc(C(F)(F)F)cc(C(F)(F)F)c1 (stereo not shown) [Example 341]
6 | 501 to 2500 | O=S(=O)(NCC(CCNCCc1c[nH]c2ccccc12)c1ccc(Cl)cc1)c1ccc(Cl)c(Cl)c1 (stereo not shown) [Example 342]
7 | 501 to 2500 | O=C(NCC(CCNCCc1c[nH]c2ccccc12)c1cccc(F)c1)Nc1cc(C(F)(F)F)cc(C(F)(F)F)c1 (stereo not shown) [Example 343]
8 | 501 to 2500 | CN(C)CCCNCCC(CNC(=O)Nc1cc(C(F)(F)F)cc(C(F)(F)F)c1)c1cccc(Cl)c1 (stereo not shown) [Example 344]
9 | 501 to 2500 | COc1ccc(C(CCNCCCN(C)C)CNC(=O)Nc2cc(C(F)(F)F)cc(C(F)(F)F)c2)cc1 (stereo not shown) [Example 345]
10 | 501 to 2500 | CN(C)CCCNCCC(CNC(=O)Nc1cc(C(F)(F)F)cc(C(F)(F)F)c1)c1cccc(F)c1 (stereo not shown) [Example 346]
11 | 501 to 2500 | Cc1cccc(C(CCNCCCN(C)C)CNC(=O)Nc2cc(C(F)(F)F)cc(C(F)(F)F)c2)c1 (stereo not shown) [Example 347]
12 | 501 to 2500 | O=S(=O)(NCC(CCN1CCC(c2ccccc2)CC1)c1ccc(Cl)c(Cl)c1)c1ccc(Cl)c(Cl)c1 (stereo not shown) [Example 348]
13 | 501 to 2500 | O=S(=O)(NCC(CCN1CCCC1)c1cccc(Cl)c1)c1ccc(Cl)c(Cl)c1 (stereo not shown) [Example 349]
14 | 51 to 500 | Cc1ccc(C(CCN2CCCCC2)CNC(=O)Nc2cc(Cl)cc(Cl)c2)cc1 (stereo not shown) [Example 350]
15 | 51 to 500 | Cc1ccc(C(CCN2CCC(N3CCCCC3)CC2)CNC(=O)Nc2cc(Cl)cc(Cl)c2)cc1 (stereo not shown) [Example 351]
16 | 51 to 500 | Cc1ccc(C(CCN2CCCCC2)CNC(=O)Nc2ccc(Cl)c(Cl)c2)cc1 (stereo not shown) [Example 352]
17 | 51 to 500 | Cc1ccc(C(CCN2CCCCC2)CNC(=O)Nc2cc(Cl)ccc2Cl)cc1 (stereo not shown) [Example 353]
18 | 501 to 2500 | COc1cc(NC(=O)NCC(CCN2CCCCC2)c2ccc(C)cc2)cc(OC)c1 (stereo not shown) [Example 354]
19 | 501 to 2500 | Cc1ccc(C(CCN2CCCCC2)CNC(=O)Nc2cc(C)cc(C)c2)cc1 (stereo not shown) [Example 355]
20 | 51 to 500 | O=C(NCC(CCN1CCC(N2CCCCC2)CC1)c1ccc(Cl)c(Cl)c1)Nc1ccc(F)c([N+](=O)[O-])c1 (stereo not shown) [Example 356]
21 | 501 to 2500 | O=C(NCC(CCN1CCC(N2CCCCC2)CC1)c1ccc(Cl)c(Cl)c1)Nc1cccc(Cl)c1Cl (stereo not shown) [Example 358]
22 | 501 to 2500 | O=C(NCC(CCN1CCC(N2CCCCC2)CC1)c1ccc(Cl)c(Cl)c1)Nc1ccc(Br)cc1Br (stereo not shown) [Example 359]
23 | 501 to 2500 | O=C(NCC(CCN1CCC(N2CCCCC2)CC1)c1ccc(Cl)c(Cl)c1)Nc1cc(Cl)ccc1Cl (stereo not shown) [Example 360]

Row | Ki [nM] | Structure (SMILES)
24 | 501 to 2500 | Cc1ccc(NC(=O)NCC(CCN2CCC(N3CCCCC3)CC2)c2ccc(Cl)c(Cl)c2)cc1F (stereo not shown) [Example 361]
25 | 501 to 2500 | O=C(NCC(CCN1CCC(N2CCCCC2)CC1)c1ccc(Cl)c(Cl)c1)Nc1ccc(OC(F)(F)F)cc1 (stereo not shown) [Example 362]
26 | 501 to 2500 | O=C(NCC(CCN1CCC(N2CCCCC2)CC1)c1ccc(Cl)c(Cl)c1)Nc1ccc(F)c(F)c1F (stereo not shown) [Example 363]
27 | 501 to 2500 | Cn1cnc(CCNCCC(CNC(=O)Nc2cc(C(F)(F)F)cc(C(F)(F)F)c2)c2ccc(Cl)c(Cl)c2)c1 (stereo not shown) [Example 367]
28 | 501 to 2500 | O=C(NCC(CCN1CCC(N2CCCCC2)CC1)c1ccc(F)c(F)c1)Nc1ccc(Cl)c(Cl)c1 (stereo not shown) [Example 369]
29 | 501 to 2500 | COc1cc(NC(=O)NCC(CCN2CCC(N3CCCCC3)CC2)c2ccc(Cl)c(Cl)c2)cc(OC)c1 (stereo not shown) [Example 370]
30 | 501 to 2500 | O=C(NCC(CCN1CCNCC1)c1ccc(Cl)c(Cl)c1)Nc1cc(C(F)(F)F)cc(C(F)(F)F)c1 (stereo not shown) [Example 371]
31 | 501 to 2500 | O=S(=O)(NCC(CCN1CCC(N2CCCCC2)CC1)c1ccc(Cl)c(Cl)c1)c1ccc(Cl)c(Cl)c1 (stereo not shown) [Example 372]
32 | 501 to 2500 | O=C(NCC(CCN1CCC(N2CCCCC2)CC1)c1ccc(Cl)c(Cl)c1)Nc1cc(C(F)(F)F)ccc1F (stereo not shown) [Example 373]
33 | 501 to 2500 | O=C(NCC(CCN1CCC(N2CCCCC2)CC1)c1ccc(Cl)c(Cl)c1)Nc1ccc(F)cc1 (stereo not shown) [Example 374]
34 | 501 to 2500 | N#Cc1cccc(NC(=O)NCC(CCN2CCC(N3CCCCC3)CC2)c2ccc(Cl)c(Cl)c2)c1 (stereo not shown) [Example 375]
35 | 501 to 2500 | O=S(=O)(NCC(CCN1CCC(N2CCCCC2)CC1)c1ccc(Cl)c(Cl)c1)c1cccc(C(F)(F)F)c1 (stereo not shown) [Example 376]
36 | 501 to 2500 | Cc1cc(C)cc(NC(=O)NCC(CCN2CCC(N3CCCCC3)CC2)c2ccc(Cl)c(Cl)c2)c1 (stereo not shown) [Example 377]
37 | 501 to 2500 | O=C(NCC(CCN1CCC(N2CCCCC2)CC1)c1ccc(F)c(F)c1)Nc1ccc(F)c(Cl)c1 (stereo not shown) [Example 378]
38 | 501 to 2500 | O=C(NCc1cc(C(F)(F)F)cc(C(F)(F)F)c1)C(CCNC1CCC1)c1ccc(Cl)c(Cl)c1 (stereo not shown) [Example 379]
39 | 501 to 2500 | O=C(NCc1cc(C(F)(F)F)cc(C(F)(F)F)c1)C(CCNCCN1CCCC1)c1ccc(Cl)c(Cl)c1 (stereo not shown) [Example 380]
40 | 501 to 2500 | O=C(NCc1cc(C(F)(F)F)cc(C(F)(F)F)c1)C(CCNCCc1c[nH]c2cc(F)ccc12)c1ccc(Cl)c(Cl)c1 (stereo not shown) [Example 381]
41 | 501 to 2500 | CC1CCN(CCC(C(=O)NCc2cc(C(F)(F)F)cc(C(F)(F)F)c2)c2ccc(Cl)c(Cl)c2)CC1 (stereo not shown) [Example 382]
42 | 501 to 2500 | O=C(NCc1cc(C(F)(F)F)cc(C(F)(F)F)c1)C(CCN1CCCCC1CO)c1ccc(Cl)c(Cl)c1 (stereo not shown) [Example 383]
43 | 501 to 2500 | CC(C)OCCCNCCC(C(=O)NCc1cc(C(F)(F)F)cc(C(F)(F)F)c1)c1ccc(Cl)c(Cl)c1 (stereo not shown) [Example 384]
44 | 501 to 2500 | O=C(NCc1cc(C(F)(F)F)cc(C(F)(F)F)c1)C(CCNCCc1c[nH]c2ccccc12)c1ccc(Cl)c(Cl)c1 (stereo not shown) [Example 385]
45 | 501 to 2500 | O=C(NCc1cc(C(F)(F)F)cc(C(F)(F)F)c1)C(CCNCCc1c[nH]c2ccc(F)cc12)c1ccc(Cl)c(Cl)c1 (stereo not shown) [Example 386]
46 | 501 to 2500 | O=C(NCc1cc(C(F)(F)F)cc(C(F)(F)F)c1)C(CCN1CCCC(CO)C1)c1ccc(Cl)c(Cl)c1 (stereo not shown) [Example 387]

Row | Ki [nM] | Structure (SMILES)
47 | 501 to 2500 | O=C(NCc1cc(C(F)(F)F)cc(C(F)(F)F)c1)C(CCNCCCn1ccnc1)c1ccc(Cl)c(Cl)c1 (stereo not shown) [Example 388]
48 | 501 to 2500 | O=C(NCc1cc(C(F)(F)F)cc(C(F)(F)F)c1)C(CCN1CCC(O)CC1)c1ccc(Cl)c(Cl)c1 (stereo not shown) [Example 389]
49 | 501 to 2500 | Cc1cc(CNC(=O)C(CCN2CCCC(C)C2)c2ccc(Cl)c(Cl)c2)cc(C(F)(F)F)c1 (stereo not shown) [Example 391]
50 | 51 to 500 | O=C(NCC(CCNCCc1ccc(O)cc1)c1ccc(Cl)c(Cl)c1)c1cc(C(F)(F)F)cc(C(F)(F)F)c1 (stereo not shown) [Example 392]
51 | 501 to 2500 | CN(CCC(CNC(=O)c1cc(C(F)(F)F)cc(C(F)(F)F)c1)c1ccc(Cl)c(Cl)c1)CC(=O)O (stereo not shown) [Example 393]
52 | 501 to 2500 | COc1ccc2c(CCNCCC(CNC(=O)c3cc(C(F)(F)F)cc(C(F)(F)F)c3)c3ccc(Cl)c(Cl)c3)c[nH]c2c1 (stereo not shown) [Example 394]
53 | 501 to 2500 | CCCN(CC)CCC(CNC(=O)c1cc(C(F)(F)F)cc(C(F)(F)F)c1)c1ccc(Cl)c(Cl)c1 (stereo not shown) [Example 395]
54 | 501 to 2500 | COc1ccc2[nH]cc(CCNCCC(CNC(=O)c3cc(C(F)(F)F)cc(C(F)(F)F)c3)c3ccc(Cl)c(Cl)c3)c2c1 (stereo not shown) [Example 396]
55 | 501 to 2500 | O=C(NCC(CCN1CCc2c([nH]c3ccccc23)C1)c1ccc(Cl)c(Cl)c1)c1cc(C(F)(F)F)cc(C(F)(F)F)c1 (stereo not shown) [Example 397]
56 | 501 to 2500 | O=C(NCC(CCNC1CCC1)c1ccc(Cl)c(Cl)c1)c1cc(C(F)(F)F)cc(C(F)(F)F)c1 (stereo not shown) [Example 398]
57 | 501 to 2500 | O=C(NCC(CCNCCc1c[nH]c2ccccc12)c1ccc(Cl)c(Cl)c1)c1cc(C(F)(F)F)cc(C(F)(F)F)c1 (stereo not shown) [Example 400]
58 | 501 to 2500 | CCCCN(CCC(CNC(=O)c1cc(C(F)(F)F)cc(C(F)(F)F)c1)c1ccc(Cl)c(Cl)c1)C1CC1 (stereo not shown) [Example 401]
59 | 501 to 2500 | O=C(NCC(CCN1CCN(c2ccc(O)cc2)CC1)c1ccc(Cl)c(Cl)c1)c1cc(C(F)(F)F)cc(C(F)(F)F)c1 (stereo not shown) [Example 402]
60 | 501 to 2500 | O=C(NCC(CCN1CCCCC1)c1ccc(Cl)c(Cl)c1)c1cc(C(F)(F)F)cc(C(F)(F)F)c1 (stereo not shown) [Example 403]
61 | 501 to 2500 | O=C(NCC(CCNCC1CCCO1)c1ccc(Cl)c(Cl)c1)c1cc(C(F)(F)F)cc(C(F)(F)F)c1 (stereo not shown) [Example 404]
62 | 501 to 2500 | CC1CCN(CCC(CNC(=O)c2cc(C(F)(F)F)cc(C(F)(F)F)c2)c2ccc(Cl)c(Cl)c2)CC1 (stereo not shown) [Example 405]
63 | 501 to 2500 | O=C(NCC(CCN1CCCC1)c1ccc(Cl)c(Cl)c1)c1cc(C(F)(F)F)cc(C(F)(F)F)c1 (stereo not shown) [Example 406]
64 | 501 to 2500 | CCN1CCCC1CNCCC(CNC(=O)c1cc(C(F)(F)F)cc(C(F)(F)F)c1)c1ccc(Cl)c(Cl)c1 (stereo not shown) [Example 407]
65 | 501 to 2500 | CN(CCC(CNC(=O)c1cc(C(F)(F)F)cc(C(F)(F)F)c1)c1ccc(Cl)c(Cl)c1)C1CCCCC1 (stereo not shown) [Example 408]
66 | 501 to 2500 | CC(C)OCCCNCCC(CNC(=O)c1cc(C(F)(F)F)cc(C(F)(F)F)c1)c1ccc(Cl)c(Cl)c1 (stereo not shown) [Example 409]
67 | 501 to 2500 | Cc1ccc2[nH]cc(CCNCCC(CNC(=O)c3cc(C(F)(F)F)cc(C(F)(F)F)c3)c3ccc(Cl)c(Cl)c3)c2c1 (stereo not shown) [Example 410]
68 | 501 to 2500 | O=C(NCC(CCNCCN1CCCC1)c1ccc(Cl)c(Cl)c1)c1cc(C(F)(F)F)cc(C(F)(F)F)c1 (stereo not shown) [Example 411]

Row | Structure (SMILES) | Ki [nM]
69 | O=C(NCc1cc(C(F)(F)F)cc(C(F)(F)F)c1)C(CCN1CCC(O)(c2ccc(Cl)cc2)CC1)c1ccc(Cl)c(Cl)c1 (stereo not shown) [Example 390] | 501 to 2500
70 | CC(Cc1c[nH]c2ccc(F)cc12)NCCC(CNC(=O)c1cc(C(F)(F)F)cc(C(F)(F)F)c1)c1ccc(Cl)c(Cl)c1 (stereo not shown) [Example 399] | 501 to 2500
